Results reported in BindingDB's records for doi:10.1021/jm00081a007 (Ohio State University, 1992).

Target: T1, Thromboxane A2 receptor (Homo sapiens, UniProt P21731)
T1 sequence (P21731 whole entry): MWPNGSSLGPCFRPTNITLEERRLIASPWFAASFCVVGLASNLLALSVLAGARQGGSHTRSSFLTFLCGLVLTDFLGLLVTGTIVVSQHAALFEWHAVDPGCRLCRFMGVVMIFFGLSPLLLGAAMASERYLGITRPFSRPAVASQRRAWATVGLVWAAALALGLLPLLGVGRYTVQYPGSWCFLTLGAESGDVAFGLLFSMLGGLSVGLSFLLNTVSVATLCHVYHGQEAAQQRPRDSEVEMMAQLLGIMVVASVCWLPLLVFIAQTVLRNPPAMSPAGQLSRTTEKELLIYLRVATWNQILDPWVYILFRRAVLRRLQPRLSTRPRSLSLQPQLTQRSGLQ
Experiment: ChEBML_209427
From the text: Inhibitory activity against U-46,619-induced responses in human platelet aggregation (Thromboxane A2 alpha receptor)

Structure (SMILES) | IC50 [µM]
COc1cc(CC2NCCc3c(F)c(O)c(O)c(F)c32)cc(OC)c1OC (stereo unspecified) [TMQ, 5,8-Difluoro] | 158
COc1cc(CC2NCCc3c2cc(O)c(O)c3C(F)(F)F)cc(OC)c1OC (stereo unspecified) [TMQ, 5-TrifluoroMe] | 832

The next lines start with the values.

IC50 [µM] | Structure (SMILES)
120 | COc1cc(CC2NCCc3c2cc(O)c(O)c3I)cc(OC)c1OC (stereo unspecified) [TMQ, 5-Iodo]
3.09 | COc1cc(CC2NCCc3cc(O)c(O)c(I)c32)cc(OC)c1OC (stereo unspecified) [TMQ, 8-Iodo]

Target: not listed separately
Experiment: Inhibitory activity against U-46,619-induced responses in human platelet aggregation (Thromboxane A2 alpha receptor)

IC50 [µM] | Structure (SMILES)
2.46 | COc1cc(C[C@H]2NCCc3cc(O)c(O)c(F)c32)cc(OC)c1OC [TMQ, R-(-)-8-Fluoro]
39.8 | COc1cc(C[C@@H]2NCCc3cc(O)c(O)c(F)c32)cc(OC)c1OC [TMQ, S-(+)-8-Fluoro]
